From ChEMBL document CHEMBL2034916, “Thiourea compound AW00178 sensitizes human H1299 lung carcinoma cells to TRAIL-mediated apoptosis” (2012)
Active and inactive are the calls of the source.

Tests used:
[1] = biological target: T1, c-Jun N-terminal kinase, JNK (Homo sapiens) (UniProt P45983+P53779+P45984); assay: Induction of JNK-mediated CHOP expression in human H1299 cells at 0.1 to 30 uM after 24 hrs by Western blot analysis; format: cell-based
[2] = Down regulation of cIAP2 expression in human H1299 cells at 0.1 to 30 uM after 24 hrs by Western blot analysis; format: functional, cell-based; conditions: NCI-H1299
NCI-H1299 [3] = assay: Induction of DR5 expression in human H1299 cells at 0.1 to 30 uM after 24 hrs by Western blot analysis; format: functional, cell-based
H1299 [4] = assay: Inhibition of Akt in human H1299 cells assessed as decrease in survivin expression after 24 hrs by Western blot analysis; format: cell-based
H1299 [5] = assay: Inhibition of Akt phosphorylation on human H1299 cells after 24 hrs by Western blot analysis; format: cell-based
[6] = Down regulation of cIAP2 expression in human H1299 cells at 0.1 to 30 uM after 24 hrs by Western blot analysis in presence of 100 ug/ml TRAIL and PI3K inhibitor LY294002; format: functional, cell-based; conditions: NCI-H1299
[7] = Upregulation of CHOP in human H1299 cells at 10 uM after 24 hrs by Western blot analysis in presence of 100 ug/ml TRAIL and pretreated with 10 uM JNK inhibition SP600125; format: functional, cell-based; conditions: NCI-H1299
NCI-H1299 [8] = assay: Induction of TRAIL-mediated apoptosis in human H1299 cells assessed as caspase 8 activation at 5 to 10 uM after 24 hrs by fluorometric assay; format: functional, cell-based
H1299 [9] = assay: Inhibition of Akt phosphorylation in human H1299 cells at 5 to 10 uM after 24 hrs by Western blot analysis; format: cell-based
[10] = Down regulation of XIAP expression in human H1299 cells at 5 to 10 uM after 24 hrs by Western blot analysis in presence of 100 ug/ml TRAIL; format: functional, cell-based; conditions: NCI-H1299
[11] = Down regulation of XIAP expression in human H1299 cells at 0.1 to 30 uM after 24 hrs by Western blot analysis; format: functional, cell-based; conditions: NCI-H1299
NCI-H1299 [12] = assay: Induction of TRAIL-mediated apoptosis in human H1299 cells assessed as caspase 8 activation at 5 to 10 uM after 24 hrs by fluorometric assay in presence of pan-caspase inhibitor Z-VAD-FMK; format: functional, cell-based
NCI-H1299 [13] = assay: Induction of apoptosis in human H1299 cells assessed as apoptotic cells at 10 uM after 48 hrs by annexinV/propidium iodide staining-based flow cytometric analysis in presence of 100 ug/ml TRAIL (reference value: 1.35%); format: functional
NCI-H1299 [14] = assay: Induction of DR5 protein expression in human H1299 cells after 24 hrs by Western blot analysis; format: functional, cell-based
[15] = biological target: T1, c-Jun N-terminal kinase, JNK (Homo sapiens); assay: Induction of JNK-mediated c-Jun phosphorylation in human H1299 cells at 5 to 10 uM after 24 hrs by Western blot analysis; format: cell-based
NCI-H1299 [16] = assay: Induction of apoptosis in human H1299 cells assessed as apoptotic cells at 5 uM after 48 hrs by annexinV/propidium iodide staining-based flow cytometric analysis (reference value: 1.35%); format: functional
[17] = Down regulation of cIAP1 expression in human H1299 cells at 10 uM after 24 hrs by Western blot analysis in presence of 100 ug/ml TRAIL; format: functional, cell-based; conditions: NCI-H1299
[18] = biological target: T1, c-Jun N-terminal kinase, JNK (Homo sapiens); assay: Induction of JNK-mediated CHOP protein expression in human H1299 cells after 24 hrs by Western blot analysis; format: cell-based
[19] = Down regulation of AKT-mediated survivin expression in human H1299 cells at 5 to 10 uM after 24 hrs by Western blot analysis in presence of 100 ug/ml TRAIL; format: cell-based
[20] = Down regulation of XIAP expression in human H1299 cells at 0.1 to 30 uM after 24 hrs by Western blot analysis in presence of 100 ug/ml TRAIL and PI3K inhibitor LY294002; format: functional, cell-based; conditions: NCI-H1299
[21] = biological target: T1, c-Jun N-terminal kinase, JNK (Homo sapiens); assay: Induction of JNK-mediated c-Jun phosphorylation in human H1299 cells at 10 uM for 30 mins cotreated with TRAIL by Western blot analysis pretreated with 10 uM JNK inhibitor SP600125 for 1 hr; format: cell-based
[22] = Down regulation of cIAP2 expression in human H1299 cells at 10 uM after 24 hrs by Western blot analysis in presence of 100 ug/ml TRAIL; format: functional, cell-based; conditions: NCI-H1299
H1299 [23] = assay: Inhibition of Akt phosphorylation in human H1299 cells at 5 to 10 uM after 24 hrs by Western blot analysis in presence of 100 ug/ml TRAIL; format: cell-based
[24] = Down regulation of XIAP expression in human H1299 cells at 5 to 10 uM after 24 hrs by Western blot analysis; format: functional, cell-based; conditions: NCI-H1299
[25] = biological target: T1, c-Jun N-terminal kinase, JNK (Homo sapiens); assay: Induction of JNK-mediated c-Jun phosphorylation in human H1299 cells at 5 to 10 uM after 24 hrs by Western blot analysis in presence of 100 ug/ml TRAIL; format: cell-based
NCI-H1299 [26] = assay: Induction of apoptosis in human H1299 cells assessed as apoptotic cells at 5 uM after 48 hrs by annexinV/propidium iodide staining-based flow cytometric analysis in presence of 100 ug/ml TRAIL (reference value: 1.35%); format: functional
[27] = Down regulation of AKT-mediated survivin expression in human H1299 cells at 5 to 10 uM after 24 hrs by Western blot analysis; format: cell-based
NCI-H1299 [28] = assay: Induction of apoptosis in human H1299 cells assessed as apoptotic cells at 10 uM after 48 hrs by annexinV/propidium iodide staining-based flow cytometric analysis (reference value: 1.35%); format: functional
[29] = Down regulation of Bcl-Xl expression in human H1299 cells at 10 uM after 24 hrs by Western blot analysis in presence of 100 ug/ml TRAIL; format: functional, cell-based; conditions: NCI-H1299

O=c1cc(N2CCOCC2)oc2c(-c3ccccc3)cccc12
inactive: Activity [1] | Activity (NCI-H1299 [3])
active: Activity [2] | inhibition (H1299 [4]) Dose-dependent effect | inhibition (H1299 [5]) Dose-dependent effect | Activity [6]

Cc1ccc(Cl)cc1NC(=S)Nc1ccc(-n2nccc2C(F)(F)F)cc1
39.4%: Activity (NCI-H1299 [13])
1.52%: Activity (NCI-H1299 [16])
inactive: Activity [7] | Activity (NCI-H1299 [12])
6.59%: Activity (NCI-H1299 [26])
3.25%: Activity (NCI-H1299 [28])
active: Activity (NCI-H1299 [8]) | inhibition (H1299 [9]) | Activity [10] | Activity [11] | Activity (NCI-H1299 [14]) | Activity [15] | Activity [17] | Activity [18] | Activity [19] | Activity [20] | Activity [21] | Activity [22] | inhibition (H1299 [23]) | Activity [24] | Activity [25] | Activity [27] | Activity [29]
